Assay results: the supplement of paper PMC12137928
Counter-ions that a name gives are not always drawn.

Test system: HCT116
Settings: 72 h
Outline: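 Luminescence was read with CellTiter-Glo in HCT116 cells seeded at 250 per well in 1536-well plates. Signals were scaled between vehicle at 0% and positive control at -100%, then pattern-corrected. IC50 and maximal efficacy were obtained by fitting a four-parameter Hill equation.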

Row | Structure (SMILES) | IC50 cell viability (ICRF193 0 nM) | IC50 cell viability (ICRF193 200 nM)
1 | CCCOC(=O)c1ccccc1 [Propyl benzoate] | > 45.8 µM | > 45.8 µM
2 | CC1CNc2c(cccc2S(=O)(=O)N[C@@H](CCCNC(=N)N)C(=O)N2CC[C@@H](C)C[C@@H]2C(=O)O)C1 (some centres undefined) [Argatroban] | > 45.8 µM | > 45.8 µM
3 | CCCCCCCCCCCCCCCCCC(=O)NCCCC[C@H](NC(=O)CC[C@@H](NC(=O)[C@H](C)NC(=O)[C@@H](C)O[C@H]1[C@H](O)[C@@H](CO)OC(O)[C@@H]1NC(C)=O)C(N)=O)C(=O)O (some centres undefined) [ROMURTIDE] | > 45.8 µM | > 45.8 µM
4 | CC1CCN(CCCC(=O)c2ccc(F)cc2)CC1 [Methylperone] | > 45.8 µM | > 45.8 µM
5 | O=C(O)CCCc1ccccc1 [Sodium 4-phenylbutyrate] | > 45.8 µM | > 45.8 µM
6 | CCCCCCCCCCCCCCCC(=O)OC[C@@H](NC(=O)C(Cl)Cl)[C@H](O)c1ccc([N+](=O)[O-])cc1 [Chloramphenicol palmitate] | > 45.8 µM | > 45.8 µM
7 | CCCCCCCCCCCCCCCCO [1-Hexadecanol] | > 45.8 µM | > 45.8 µM
8 | O=C(CCCN1CCC(C(=O)c2ccc(F)cc2)CC1)c1ccc(F)cc1 [Lenperone Hydrochloride] | > 45.8 µM | > 45.8 µM
9 | Cc1nccn1CC1CCc2c(c3ccccc3n2C)C1=O (centres undefined) [Ondansetron] | > 45.8 µM | > 45.8 µM
10 | C=C(C)[C@H]1CC=C(C)CC1 [d-LIMONENE] | > 45.8 µM | > 45.8 µM
11 | Cc1cccc(C)c1NC(=O)CC12CCCN1CCC2 [Pilsicainide] | > 45.8 µM | > 45.8 µM
12 | N=C(N)NCCCCCCC(=O)NC(O)C(=O)NCCCCNCCCN (centres undefined) [Gusperimus trihydrochloride] | > 45.8 µM | > 45.8 µM
13 | CC(C)=CC1C(C(=O)OCc2cccc(Oc3ccccc3)c2)C1(C)C (centres undefined) [Phenothrin] | > 45.8 µM | > 45.8 µM
14 | CC1COC2(c3ccccc3Cl)c3cc(Cl)ccc3NC(=O)CN12 (centres undefined) [Mexazolam] | > 45.8 µM | > 45.8 µM
15 | CC(C)=C/C(C)=N/Nc1nncc2ccccc12 [Budralazine] | > 45.8 µM | > 45.8 µM
16 | Cc1oc(=O)oc1CN1CCN(c2cc3c(cc2F)c(=O)c(C(=O)O)c2n3C(C)S2)CC1 (centres undefined) [Prulifloxacin] | > 45.8 µM | > 45.8 µM
17 | CC(C)NC(=N)NC(=N)Nc1ccc(Cl)cc1 [Proguanil hydrochloride] | > 45.8 µM | > 45.8 µM
18 | C[C@@H](O)[C@H]1C(=O)N2C(C(=O)O)=C(S[C@@H]3CN[C@H](C(=O)Nc4cccc(C(=O)O)c4)C3)[C@H](C)[C@H]12 [Ertapenem] | > 45.8 µM | > 45.8 µM
19 | NS(=O)(=O)Cc1noc2ccccc12 [Zonisamide] | > 45.8 µM | > 45.8 µM
20 | OCC(O)C(O)C(O)CO (centres undefined) [ARABITOL(D)] | > 45.8 µM | > 45.8 µM
21 | CC(=O)Nc1ccc(C(=O)O)cc1 [4-Acetamidobenzoic acid] | > 45.8 µM | > 45.8 µM

Row | Structure (SMILES) | IC50 cell viability (ICRF193 0 nM) | IC50 cell viability (ICRF193 200 nM)
22 | O=C(CCBr)N1CCN(C(=O)CCBr)CC1 [Pipobroman] | > 45.8 µM | > 45.8 µM
23 | C[C@]12CC[C@H]3[C@@H](CC[C@@]45O[C@@H]4C(O)=C(C#N)C[C@]35C)[C@@H]1CC[C@@H]2O [Trilostane] | > 45.8 µM | > 45.8 µM
24 | CCCCCCCCCC(=O)N[C@@H](Cc1c[nH]c2ccccc12)C(=O)N[C@H](CC(N)=O)C(=O)N[C@@H](CC(=O)O)C(=O)N[C@@H]1C(=O)NCC(=O)N[C@@H](CCCN)C(=O)N[C@@H](CC(=O)O)C(=O)N[C@H](C)C(=O)N[C@@H](CC(=O)O)C(=O)NCC(=O)N[C@H](CO)C(=O)N[C@@H]([C@H](C)CC(=O)O)C(=O)N[C@@H](CC(=O)c2ccccc2N)C(=O)O[C@@H]1C [Daptomycin] | > 45.8 µM | > 45.8 µM
25 | CC/C=C\C/C=C\C/C=C\C/C=C\C/C=C\C/C=C\CCC(=O)O [DOCONEXENT] | > 45.8 µM | > 45.8 µM
26 | CN(Cc1cc(Br)cc(Br)c1N)C1CCCCC1 [Bromhexine hydrochloride] | > 45.8 µM | > 45.8 µM
27 | OCCOc1ccccc1 [2-Phenoxyethanol] | > 45.8 µM | > 45.8 µM
28 | C[C@H]1COc2c(N3CCN(C)CC3)c(F)cc3c(=O)c(C(=O)O)cn1c23 [Levofloxacin] | > 45.8 µM | > 45.8 µM
29 | Cl.NCCCC[C@H](N)C(=O)O [L-(+)-Lysine monohydrochloride] | > 45.8 µM | > 45.8 µM
30 | N[C@@H](CSCC(=O)O)C(=O)O [Carbocysteine] | > 45.8 µM | > 45.8 µM
31 | NC(=O)NC1N=C([O][Al])NC1=O.O.O (centres undefined) [Isalon] | > 45.8 µM | > 45.8 µM
32 | COc1cc(OC)cc(OC)c1 [1,3,5-Trimethoxybenzene] | > 45.8 µM | > 45.8 µM
33 | Nc1ncnc2c1ncn2[C@@H]1O[C@H](CO)[C@@H](O)[C@H]1O [Adenosine] | > 45.8 µM | > 45.8 µM
34 | CCN1CCCC(OC(=O)C(c2ccccc2)c2ccccc2)C1 (centres undefined) [Piperidolate hydrochloride] | > 45.8 µM | > 45.8 µM
35 | C=CC(N)CCC(=O)O (centres undefined) [Vigabatrin] | > 45.8 µM | > 45.8 µM
36 | O=C(O)CSCC(=O)NC1CCSC1=O (centres undefined) [Erdosteine] | > 45.8 µM | > 45.8 µM
37 | CSCCNc1nc(SCCC(F)(F)F)nc2c1ncn2[C@@H]1O[C@H](COP(=O)(O)OP(=O)(O)C(Cl)(Cl)P(=O)(O)O)[C@@H](O)[C@H]1O | > 45.8 µM | > 45.8 µM
38 | COC1=C(C(=O)O)N2C(=O)[C@@H](NC(=O)[C@H](N)C3=CCC=CC3)[C@H]2SC1 [Cefroxadine] | > 45.8 µM | > 45.8 µM
39 | CN(C)CC(c1ccc(O)cc1)C1(O)CCCCC1 (centres undefined) [DESVENLAFAXINE SUCCINATE] | > 45.8 µM | > 45.8 µM
40 | CCC(=O)OCC(=O)[C@@]1(OC(=O)CC)[C@H](C)C[C@H]2[C@H]3[C@H]([C@@H](O)C[C@@]21C)[C@@]1(C)C=CC(=O)C=C1C[C@H]3Cl [Alclometasone dipropionate] | > 45.8 µM | > 45.8 µM
41 | COC(=O)C1=C(C)NC(C)=C(C(=O)OC(C)C)C1c1cccc2nonc12 (centres undefined) [Isradipine] | > 45.8 µM | > 45.8 µM
42 | Cc1cc(O)cc(C)c1Cl [4-Chloro-3,5-dimethylphenol] | > 45.8 µM | > 45.8 µM

Row | Structure (SMILES) | IC50 cell viability (ICRF193 0 nM) | IC50 cell viability (ICRF193 200 nM)
43 | C[C@@H]1NC(=O)[C@@H]2CCCN2C(=O)[C@H](CC(N)=O)NC(=O)[C@@H]2CSSC[C@H](N)C(=O)N[C@H]3CSSC[C@H](NC1=O)C(=O)N[C@@H]([C@@H](C)O)C(=O)NCC(=O)N[C@H](C(=O)N[C@@H](Cc1ccc(O)cc1)C(=O)O)CSSC[C@H](NC(=O)[C@H](Cc1ccc(O)cc1)NC(=O)[C@H](CCC(=O)O)NC3=O)C(=O)N2 [LINACLOTIDE (1 mg/ml)] | > 45.8 µM | > 45.8 µM
44 | COc1ccc(C(=O)Nc2ccccc2CCC2CCCCN2C)cc1 (centres undefined) [Encainide hydrochloride] | > 45.8 µM | > 45.8 µM
45 | Clc1ccc2nsnc2c1NC1=NCCN1 [Tizanidine hydrochloride] | > 45.8 µM | > 45.8 µM
46 | Cc1cc(NS(=O)(=O)c2ccc(N)cc2)no1 [Sulfamethoxazole] | > 45.8 µM | > 45.8 µM
47 | Cc1ncc([N+](=O)[O-])n1CC(C)O (centres undefined) [Secnidazole] | > 45.8 µM | > 45.8 µM
48 | CC1(C)S[C@@H]2[C@H](NC(=O)COc3ccccc3)C(=O)N2[C@H]1C(=O)O [PENICILLIN V POTASSIUM] | > 45.8 µM | > 45.8 µM
49 | CCCN(CC)C(CC)C(=O)Nc1c(C)cccc1C (centres undefined) [Etidocaine] | > 45.8 µM | > 45.8 µM
50 | C[C@H]1O[C@@H](n2cc(F)c(=O)[nH]c2=O)[C@H](O)[C@@H]1O [Doxifluridine] | > 45.8 µM | > 45.8 µM
51 | NC(=O)c1ccccc1O [Salicylamide] | > 45.8 µM | > 45.8 µM
52 | O=C(OCc1ccccc1)c1ccc(O)cc1 [Benzylparaben] | > 45.8 µM | > 45.8 µM
53 | CCCC(=O)Nc1c(I)cc(I)c(CC(CC)C(=O)O)c1I (centres undefined) [Sodium tyropanoate] | > 45.8 µM | > 45.8 µM
54 | N#Cc1cc(NC(=O)C(=O)O)c(Cl)c(NC(=O)C(=O)O)c1 [Lodoxamide] | > 45.8 µM | > 45.8 µM
55 | COP(=S)(OC)Oc1ccc(S(=O)(=O)N(C)C)cc1 [Famphur] | > 45.8 µM | > 45.8 µM
56 | COc1cc(Cc2cnc(N)nc2N)cc(OC)c1OC [Trimethoprim] | > 45.8 µM | > 45.8 µM
57 | N#C/C(=C1/SCC(c2ccccc2Cl)S1)n1ccnc1 (centres undefined) [Lanoconazole] | > 45.8 µM | > 45.8 µM
58 | CC(C)OC(=O)[C@H](C)N[P@](=O)(CO[C@H](C)Cn1cnc2c(N)ncnc21)Oc1ccccc1 [GS-7340] | > 45.8 µM | > 45.8 µM
59 | CS(=O)(=O)c1ccc([C@H](O)[C@@H](COC(=O)CN)NC(=O)C(Cl)Cl)cc1 [Thiamphenicol glycinate] | > 45.8 µM | > 45.8 µM
60 | Cc1cc(CC(C)C[Si](C)(O[Si](C)(C)C)O[Si](C)(C)C)c(O)c(-n2nc3ccccc3n2)c1 (centres undefined) [DROMETRIZOLE TRISILOXANE] | > 45.8 µM | > 45.8 µM
61 | CN(C)[C@@H]1C(O)=C(C(=O)NCNCCCC[C@H](N)C(=O)O)C(=O)[C@@]2(O)C(O)=C3C(=O)c4c(O)cccc4[C@@](C)(O)[C@H]3C[C@@H]12 [Lymecycline] | > 45.8 µM | > 45.8 µM
62 | CN(C)CCC(O)(c1ccccc1)c1ccccc1Cl (centres undefined) [Chlophedianol] | > 45.8 µM | > 45.8 µM
